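Dose response: 5 concentrations. Exposure: 48 h. Format: 96-well plates. Endpoint: linear interpolation; highest concentration if not reached. Here, GI50 denotes the concentration required for 50% inhibition of growth.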 Active and inactive are the calls of the source. No stated cut-off is given here; in the data, active = GI50 up to about 1.1 µM and inactive = higher.
Assays:
Test in all cases: DTP human tumour cell line panel, 48 h
PC-3 = tested on: PC-3
SF-295 = tested on: SF-295
DU-145 = tested on: DU-145
SK-OV-3 = tested on: SK-OV-3
HOP-92 = tested on: HOP-92
KM12 = tested on: KM12
HT-29 = tested on: HT-29
CAKI-1 = tested on: CAKI-1
HCT-116 = tested on: HCT-116
COLO 205 = tested on: COLO 205
T47D = tested on: T47D
TK-10 = tested on: TK-10
SK-MEL-5 = tested on: SK-MEL-5
RPMI-8226 = tested on: RPMI-8226
OVCAR-3 = tested on: OVCAR-3
RXF 393 = tested on: RXF 393
NCI-H460 = tested on: NCI-H460
M14 = tested on: M14
BT-549 = tested on: BT-549
K562 = tested on: K562

SMILES	GI50 (PC-3)	GI50 (SF-295)	GI50 (DU-145)	GI50 (SK-OV-3)	GI50 (HOP-92)	GI50 (KM12)	GI50 (HT-29)	GI50 (CAKI-1)	GI50 (HCT-116)	GI50 (COLO 205)	GI50 (T47D)	GI50 (TK-10)	GI50 (SK-MEL-5)	GI50 (RPMI-8226)	GI50 (OVCAR-3)	GI50 (RXF 393)	GI50 (NCI-H460)	GI50 (M14)	GI50 (BT-549)	GI50 (K562)
C=C1C(=O)OC2/C=C(/C)C(OC(C)=O)CC(O)/C(C)=C\C(OC(=O)/C(C)=C\C)C12 (stereo not given)	> 100 µM (inactive)	> 100 µM (inactive)	53.8 µM (inactive)	> 100 µM (inactive)	43.6 µM (inactive)	> 100 µM (inactive)	66.1 µM (inactive)	30.5 µM (inactive)	18.2 µM (inactive)	34.4 µM (inactive)	52.6 µM (inactive)	> 100 µM (inactive)	> 100 µM (inactive)	38.7 µM (inactive)	46.6 µM (inactive)	51.9 µM (inactive)	> 100 µM (inactive)	53.6 µM (inactive)	53.5 µM (inactive)	35.2 µM (inactive)
CNCCCNC1(c2cc3ccccc3s2)CCCCC1	9.44 µM (inactive)	14.2 µM (inactive)	11.9 µM (inactive)	15.7 µM (inactive)	2.39 µM (inactive)	5.61 µM (inactive)	2.46 µM (inactive)	10.1 µM (inactive)	3.56 µM (inactive)	1.79 µM (inactive)	4.92 µM (inactive)	6.31 µM (inactive)	2.21 µM (inactive)	2.04 µM (inactive)	12.5 µM (inactive)	1.36 µM (inactive)	2.86 µM (inactive)	3.8 µM (inactive)	14.6 µM (inactive)	1.98 µM (inactive)
COC1=C(C)C(=O)C2=C(C1=O)C1C3CC4=C(C(=O)C(OC)=C(C)C4=O)C(CNC(=O)C(C)O)N3C(C#N)C(C2)N1C (stereo not given)	< 0.011 µM (active)	0.0579 µM (active)	0.016 µM (active)	0.0673 µM (active)	< 0.01 µM (active)	0.0119 µM (active)	< 0.01 µM (active)	0.037 µM (active)	0.0465 µM (active)	< 0.01 µM (active)	< 0.01 µM (active)	0.0353 µM (active)	< 0.01 µM (active)	< 0.01 µM (active)	< 0.01 µM (active)	< 0.0121 µM (active)	0.0159 µM (active)	< 0.0112 µM (active)	< 0.01 µM (active)	< 0.01 µM (active)
CC(C)c1ccc2c(c1)/C(=C1/Nc3ccccc3C1=O)C(=O)N2	8.85 µM (inactive)	14.8 µM (inactive)	15.2 µM (inactive)	3.75 µM (inactive)	4.58 µM (inactive)	0.0973 µM (active)	26.8 µM (inactive)	14.3 µM (inactive)	11.3 µM (inactive)	> 100 µM (inactive)	0.557 µM (active)	5.01 µM (inactive)	27.2 µM (inactive)	27.8 µM (inactive)	19 µM (inactive)	1.42 µM (inactive)	9.27 µM (inactive)	33.6 µM (inactive)	18.1 µM (inactive)	33.7 µM (inactive)
CCN(CC)CCNC(=O)c1ccc(C)c(OCc2ccccc2)c1[N+](=O)[O-]	45.3 µM (inactive)	24.5 µM (inactive)	> 90.2 µM (inactive)	34.2 µM (inactive)	24.9 µM (inactive)	39.9 µM (inactive)	19.1 µM (inactive)	20.7 µM (inactive)	23 µM (inactive)	16 µM (inactive)	20.7 µM (inactive)	61.2 µM (inactive)	16.3 µM (inactive)	25.8 µM (inactive)	43.9 µM (inactive)	52.5 µM (inactive)	36.6 µM (inactive)	17.8 µM (inactive)	> 35.8 µM (inactive)	19.2 µM (inactive)
CNC(=S)N/N=C/c1cccc(C)n1	42 µM (inactive)	32.7 µM (inactive)	28.8 µM (inactive)	37.2 µM (inactive)	55.8 µM (inactive)	61.1 µM (inactive)	36 µM (inactive)	47.6 µM (inactive)	31.6 µM (inactive)	38.2 µM (inactive)	42.8 µM (inactive)	32.8 µM (inactive)	25.1 µM (inactive)	> 59.8 µM (inactive)	29.9 µM (inactive)	38.5 µM (inactive)	19.9 µM (inactive)	21.3 µM (inactive)	23.5 µM (inactive)	42.8 µM (inactive)
COc1cc2c(/C=C3/C(=O)N(c4ccccc4)c4ccccc43)c(Cl)[nH]c2cc1C	2.94 µM (inactive)	2.85 µM (inactive)	2.89 µM (inactive)	1.89 µM (inactive)	4.44 µM (inactive)	2.14 µM (inactive)	3.09 µM (inactive)	3.89 µM (inactive)	2.95 µM (inactive)	1.9 µM (inactive)	2.07 µM (inactive)	3.19 µM (inactive)	2.32 µM (inactive)	1.34 µM (inactive)	1.99 µM (inactive)	4.29 µM (inactive)	2.73 µM (inactive)	3.18 µM (inactive)	2.48 µM (inactive)	2.84 µM (inactive)
